Results reported in PubChem BioAssay AID330 (DTP/NCI, 2004).
Several values for one entry are separate records, joined by “and”; a condition that tells them apart may be missing. Equal values may be shown once. Toxic doses and inconclusive results are not listed. The calls were made as follows: active = survival T/C of 150% or more; inactive = T/C below 125% in these data.

System: P388 leukemia ip, CD2F1 mice, survival T/C
Experiment: NCI In Vivo Anticancer Drug Screen. Data for tumor model P388 Leukemia (intraperitoneal) in CD2F1 (CDF1) mice
Settings: endpoint: median survival time, higher = longer survival
Summary of the method: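 Mice carrying the transplanted tumor received test compound or vehicle. Survival was recorded in each group, and the value is the treated-group measurement divided by that of the vehicle-treated control group.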

[1] = dose: 50.0 mg/kg/injection, schedule: Q01DX005 (ip), vehicle: saline with Tween-80
[2] = dose: 100.0 mg/kg/injection, schedule: Q01DX005 (ip), vehicle: saline with Tween-80
[3] = dose: 12.5 mg/kg/injection, schedule: Q01DX009 (ip), vehicle: other
[4] = dose: 25.0 mg/kg/injection, schedule: Q01DX009 (ip), vehicle: other
[5] = dose: 100.0 mg/kg/injection, schedule: Q01DX001 (ip), vehicle: saline
[6] = dose: 200.0 mg/kg/injection, schedule: Q01DX001 (ip), vehicle: saline
[7] = dose: 60.0 mg/kg/injection, schedule: Q01DX005 (ip), vehicle: saline
[8] = dose: 120.0 mg/kg/injection, schedule: Q01DX005 (ip), vehicle: saline

Measured: T/C

CC(C)NC(=O)c1ccc(N/N=[N+](/C)[O-])cc1
inactive: dose: 6.25 mg/kg/injection, schedule: Q01DX005 (ip), vehicle: saline with Tween-80 97 % of control | dose: 12.5 mg/kg/injection, schedule: Q01DX005 (ip), vehicle: saline with Tween-80 99 % of control | dose: 25.0 mg/kg/injection, schedule: Q01DX005 (ip), vehicle: saline with Tween-80 98 % of control | [1] 92 % of control | [2] 102 % of control

COc1cccc2c1C(=O)c1c(O)c3c(c(O)c1C2=O)CC(O)(C1(O)CSC(C)=N1)CC3O (stereo not drawn)
inactive: dose: 1.56 mg/kg/injection, schedule: Q01DX009 (ip), vehicle: other 102 % of control | dose: 3.13 mg/kg/injection, schedule: Q01DX009 (ip), vehicle: other 104 % of control | dose: 6.25 mg/kg/injection, schedule: Q01DX009 (ip), vehicle: other 104 % of control | [3] 105 % of control | [4] 98 % of control | dose: 25.0 mg/kg/injection, schedule: Q01DX009 (ip), vehicle: water 101 % of control | dose: 50.0 mg/kg/injection, schedule: Q01DX009 (ip), vehicle: water 101 % of control | dose: 100.0 mg/kg/injection, schedule: Q01DX009 (ip), vehicle: water 121 % of control

Nc1nc2c(ncn2C2OC(CO)C(O)C2O)c(=O)n1N (stereo not drawn)
inactive: dose: 12.5 mg/kg/injection, schedule: Q01DX009 (ip), vehicle: Klucel (hydroxypropylcellulose) (HPC) 100 % of control and 102 % of control | dose: 25.0 mg/kg/injection, schedule: Q01DX009 (ip), vehicle: Klucel (hydroxypropylcellulose) (HPC) 103 % of control | dose: 50.0 mg/kg/injection, schedule: Q01DX009 (ip), vehicle: Klucel (hydroxypropylcellulose) (HPC) 101 % of control and 108 % of control | dose: 100.0 mg/kg/injection, schedule: Q01DX009 (ip), vehicle: Klucel (hydroxypropylcellulose) (HPC) 104 % of control and 113 % of control

CCNCCn1cccc1
inactive: dose: 50.0 mg/kg/injection, schedule: Q04DX003 (ip), vehicle: saline 91 % of control | dose: 100.0 mg/kg/injection, schedule: Q04DX003 (ip), vehicle: saline 95 % of control | dose: 200.0 mg/kg/injection, schedule: Q04DX003 (ip), vehicle: saline 95 % of control

O=C1c2ccccc2-c2nc3ccccc3nc21
inactive: [1] 94 % of control | [2] 94 % of control

CCC1COS(=O)(=O)CS(=O)(=O)O1 (stereo not drawn)
inactive: dose: 60.0 mg/kg/injection, schedule: Q01DX005 (ip), vehicle: saline with Tween-80 101 % of control | dose: 120.0 mg/kg/injection, schedule: Q01DX005 (ip), vehicle: saline with Tween-80 100 % of control | dose: 240.0 mg/kg/injection, schedule: Q01DX005 (ip), vehicle: saline with Tween-80 105 % of control

COc1cccc2nncn12
inactive: dose: 50.0 mg/kg/injection, schedule: Q01DX001 (ip), vehicle: saline 100 % of control | [5] 100 % of control | [6] 100 % of control

Nc1ncccc1OCc1ccccc1
inactive: dose: 50.0 mg/kg/injection, schedule: Q01DX009 (ip), vehicle: saline 100 % of control and 110 % of control | dose: 100.0 mg/kg/injection, schedule: Q01DX009 (ip), vehicle: saline 107 % of control and 116 % of control | dose: 200.0 mg/kg/injection, schedule: Q01DX009 (ip), vehicle: saline 113 % of control and 98 % of control | dose: 400.0 mg/kg/injection, schedule: Q01DX009 (ip), vehicle: saline 100 % of control and 95 % of control

CC(=NCCCCN=C(C)c1cc(C)cc([N+](=O)[O-])c1O)c1cc(C)cc([N+](=O)[O-])c1O.[Co]
inactive: dose: 100.0 mg/kg/injection, schedule: Q05DX002 (ip), vehicle: saline with Tween-80 92 % of control | dose: 200.0 mg/kg/injection, schedule: Q05DX002 (ip), vehicle: saline with Tween-80 98 % of control | dose: 400.0 mg/kg/injection, schedule: Q05DX002 (ip), vehicle: saline with Tween-80 92 % of control

COc1ccc(S(=O)(=O)N/N=C\c2cc([N+](=O)[O-])ccc2O)cc1OC
inactive: [1] 109 % of control | [2] 109 % of control | dose: 200.0 mg/kg/injection, schedule: Q01DX005 (ip), vehicle: saline with Tween-80 100 % of control

CCOc1c(N=Nc2cccc(Cl)c2)c(C)nn1C(=S)S
inactive: dose: 15.0 mg/kg/injection, schedule: Q01DX005 (ip), vehicle: Klucel + Tween-80 94 % of control | dose: 30.0 mg/kg/injection, schedule: Q01DX005 (ip), vehicle: Klucel + Tween-80 90 % of control

Cc1ncc(CO)n1C
inactive: dose: 50.0 mg/kg/injection, schedule: Q01DX009 (ip), vehicle: saline with Tween-80 104 % of control | dose: 100.0 mg/kg/injection, schedule: Q01DX009 (ip), vehicle: saline with Tween-80 101 % of control | dose: 200.0 mg/kg/injection, schedule: Q01DX009 (ip), vehicle: saline with Tween-80 101 % of control | dose: 400.0 mg/kg/injection, schedule: Q01DX009 (ip), vehicle: saline with Tween-80 113 % of control

Cc1ccc(S(=O)(=O)N/N=C\c2cccnc2)cc1
inactive: [3] 105 % of control | [4] 110 % of control | dose: 50.0 mg/kg/injection, schedule: Q01DX009 (ip), vehicle: other 105 % of control | dose: 100.0 mg/kg/injection, schedule: Q01DX009 (ip), vehicle: other 109 % of control and 95 % of control | dose: 200.0 mg/kg/injection, schedule: Q01DX009 (ip), vehicle: other 99 % of control and 100 % of control | dose: 400.0 mg/kg/injection, schedule: Q01DX009 (ip), vehicle: other 101 % of control

CCCCCCOC(=O)Nc1nnc(SSC2=NN=CC2NC(=O)OCCCCCC)s1 (stereo not drawn)
inactive: [5] 91 % of control | [6] 90 % of control | dose: 400.0 mg/kg/injection, schedule: Q01DX001 (ip), vehicle: saline 90 % of control

NNC(=O)CNc1ccccc1F
inactive: dose: 15.0 mg/kg/injection, schedule: Q01DX005 (ip), vehicle: saline 97 % of control | dose: 30.0 mg/kg/injection, schedule: Q01DX005 (ip), vehicle: saline 95 % of control | [7] 91 % of control and 97 % of control | [8] 97 % of control

Cc1ccc(S(=O)(=O)OC2C(COCC(=O)O)OC3OC(C)(C)OC32)cc1 (stereo not drawn)
inactive: dose: 100.0 mg/kg/injection, schedule: Q04DX003 (ip), vehicle: saline with Tween-80 95 % of control | dose: 200.0 mg/kg/injection, schedule: Q04DX003 (ip), vehicle: saline with Tween-80 95 % of control | dose: 400.0 mg/kg/injection, schedule: Q04DX003 (ip), vehicle: saline with Tween-80 90 % of control

CC1=C(C(=O)N=C(N)C(Cl)(Cl)Cl)SCCO1
inactive: dose: 50.0 mg/kg/injection, schedule: Q01DX005 (ip), vehicle: distilled water + alcohol 108 % of control | dose: 100.0 mg/kg/injection, schedule: Q01DX005 (ip), vehicle: distilled water + alcohol 109 % of control | dose: 200.0 mg/kg/injection, schedule: Q01DX005 (ip), vehicle: distilled water + alcohol 117 % of control

CC(C)(C)OC(=O)CS(=O)(=O)Nc1ccccc1O
inactive: dose: 60.0 mg/kg/injection, schedule: Q01DX005 (ip), vehicle: Klucel (hydroxypropylcellulose) (HPC) 106 % of control | dose: 120.0 mg/kg/injection, schedule: Q01DX005 (ip), vehicle: Klucel (hydroxypropylcellulose) (HPC) 86 % of control | dose: 240.0 mg/kg/injection, schedule: Q01DX005 (ip), vehicle: Klucel (hydroxypropylcellulose) (HPC) 97 % of control

OCC1N2CCC(CC2)C1(O)O (stereo not drawn)
inactive: dose: 100.0 mg/kg/injection, schedule: Q04DX003 (ip), vehicle: suspension in saline 96 % of control | dose: 200.0 mg/kg/injection, schedule: Q04DX003 (ip), vehicle: suspension in saline 100 % of control | dose: 400.0 mg/kg/injection, schedule: Q04DX003 (ip), vehicle: suspension in saline 106 % of control

CC1C(=O)C23CC1CCC2C12COC(=O)C1C(C)(C)C(O)CC2OC3=O (stereo not drawn)
inactive: dose: 50.0 mg/kg/injection, schedule: Q04DX002 (ip), vehicle: saline with Tween-80 113 % of control | dose: 100.0 mg/kg/injection, schedule: Q04DX002 (ip), vehicle: saline with Tween-80 93 % of control | dose: 200.0 mg/kg/injection, schedule: Q04DX002 (ip), vehicle: saline with Tween-80 112 % of control

COC(=O)c1cc(-c2ccccn2)[nH]c(=O)c1C#N
inactive: [7] 104 % of control | [8] 100 % of control | dose: 240.0 mg/kg/injection, schedule: Q01DX005 (ip), vehicle: saline 97 % of control

BrC1(Br)C2CC3C(CC21)C3(Br)Br (stereo not drawn)
inactive: dose: 37.5 mg/kg/injection, schedule: Q01DX001 (ip), vehicle: saline with Tween-80 100 % of control | dose: 75.0 mg/kg/injection, schedule: Q01DX001 (ip), vehicle: saline with Tween-80 109 % of control | dose: 150.0 mg/kg/injection, schedule: Q01DX001 (ip), vehicle: saline with Tween-80 100 % of control
